Source: US10160747B2, “Compounds and methods for kinase modulation, and indications therefor” (Plexxikon Inc., priority 2016, dated 2018)
pIC50: −log10 of the molar value.

Columns and labels:
[1] = test system: MOLM-14 D835Y (endogenous FLT3 ITD and transfected FLT3 D835Y); experiment: MOLM-14 D835Y cell proliferation assay (CellTiter-Glo); type: cell-based; settings: Homo sapiens, MOLM-14, 72 h; 3 d growth, GMean
Text: (§1) The FLT3 inhibitors may be assessed using the MOLM-14, Acute Myeloid Leukemia cell line that endogenously expresses FLT3 ITD or derivatives of the human FLT3 AML cell line which acquired the D835Y (activation loop) of F691L (gatekeeper) mutation after selection in escalating doses of the FLT3 Inhibitor AC220. FLT3 inhibitors may also be assessed using cells that are engineered to express mutant FLT3. For engineered cells, murine Ba/F3 cells were transfected with full-length FLT3 ITD/D835Y mutations. The parental BA/F3 cells are dependent upon Interleukin-3 (IL-3) for survival, and introduction of the FLT3 constructs rendered these cells dependent upon FLT3 kinase activity when cultured in the absences of IL-3. Engineered BA/F3 cell growth assays can be performed in either the […] of IL-3, to assess the compound inhibition of FLT3 or to detect the presence of off-target activity, respectively. Inhibitors of FLT3 kinase activity reduce or eliminate the FLT3 oncogenic signaling, resulting in reduced cell proliferation. This inhibition is measured as a function of compound concentration to assess IC50 values.
(§2) Cell lines used in proliferation assays are as follows in Table 2:
(§3) Cells were seeded at 1×10^4 cells per well of a 96 well cell culture plate in 50 μl of cell culture medium. Compounds were dissolved in DMSO, typically at a concentration of 0.5 mM and were serially diluted 1:3 for a total of eight points and added to the cells to final concentrations of […], 0.0041, 0.0014 and 0.00046 μM in 100 μl cell culture medium (final concentration 0.2% DMSO). […] The cells were incubated at 37° C., 5% CO2 for three days. CellTiter-Glo Buffer (Promega Cell Viability Assay catalog #G7573) and substrate were equilibrated to room temperature, and enzyme/substrate Recombinant Firefly Luciferase/Beetle Luciferin was reconstituted. The cell plates were equilibrated to room temperature for 30 minutes, then lysed by addition of an equivalent volume of the Celltiter-Glo Reagent. The plate was mixed for 10 minutes on a plate shaker to lyse the cells. The plates were read on a Tecan M1000 using Luminescence protocol modified to read 0.1 s per well. The luminescence reading assesses the ATP content, which correlates directly with cell number such that the reading as a function of compound concentration was used to determine the IC50 value.

[2] = test system: MOLM-14 F691L (endogenous FLT3 ITD and transfected FLT3 F691L); experiment: MOLM-14 F691L cell proliferation assay (CellTiter-Glo); type: cell-based; settings: Homo sapiens, MOLM-14, 72 h; 3 d growth, GMean
Text: as §1, §2, §3

BA/F3-FLT3-ITD + D835Y = target: T1, BA/F3-FLT3-ITD + D835Y (Homo sapiens, UniProt P36888, D835Y, cells depend on it, form not given); experiment: Engineered BA/F3 cell growth assay, FLT3 ITD/D835Y; type: cell-based, murine; settings: 3 d growth
T1 sequence (P36888 with tags, fused parts or gaps INS600HVDFREYEYD/D835Y): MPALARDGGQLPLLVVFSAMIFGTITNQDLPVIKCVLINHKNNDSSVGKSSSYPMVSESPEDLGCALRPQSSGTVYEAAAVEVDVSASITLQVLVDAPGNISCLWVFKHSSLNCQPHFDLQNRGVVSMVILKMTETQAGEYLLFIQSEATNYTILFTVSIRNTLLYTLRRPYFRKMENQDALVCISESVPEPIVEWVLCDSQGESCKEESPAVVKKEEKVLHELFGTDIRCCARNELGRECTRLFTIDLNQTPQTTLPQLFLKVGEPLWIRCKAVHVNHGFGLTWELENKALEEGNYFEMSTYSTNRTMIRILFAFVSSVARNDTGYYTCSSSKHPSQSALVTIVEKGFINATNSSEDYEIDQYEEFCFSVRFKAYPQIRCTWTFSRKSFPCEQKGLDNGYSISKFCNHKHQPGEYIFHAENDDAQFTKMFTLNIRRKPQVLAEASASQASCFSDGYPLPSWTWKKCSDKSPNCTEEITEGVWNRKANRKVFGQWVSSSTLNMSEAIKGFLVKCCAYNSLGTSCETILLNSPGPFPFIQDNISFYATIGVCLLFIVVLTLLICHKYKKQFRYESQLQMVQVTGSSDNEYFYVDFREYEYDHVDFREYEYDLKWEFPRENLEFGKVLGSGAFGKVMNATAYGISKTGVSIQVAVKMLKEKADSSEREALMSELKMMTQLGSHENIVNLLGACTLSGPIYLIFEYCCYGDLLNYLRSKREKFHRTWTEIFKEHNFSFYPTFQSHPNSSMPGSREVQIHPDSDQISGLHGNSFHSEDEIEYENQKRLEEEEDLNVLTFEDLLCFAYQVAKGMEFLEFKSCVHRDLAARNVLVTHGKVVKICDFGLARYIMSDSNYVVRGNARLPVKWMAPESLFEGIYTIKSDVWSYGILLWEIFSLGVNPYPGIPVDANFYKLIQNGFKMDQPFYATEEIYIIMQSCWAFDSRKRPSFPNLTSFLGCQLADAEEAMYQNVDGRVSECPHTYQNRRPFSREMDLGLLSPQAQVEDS
Text: as §1, §2, §3
The BaF3 assays as developed used to generate the data in Tables 7 and 8 are identical and differ only in minor details in regards to vector design, not biological function. Both introduce the FLT3 gene with MV4-11 based ITD duplications and resistance mutations from an exogenous promoter (MSCV and CMV respectively) in the exact same cell line.
As a result of the expressed FLT3 protein, the IL3 factor dependent BaF3 cell clones become IL3-factor independent.
The compounds in Tables 7 and 8 were tested in an identical fashion by incubating such clones in with increasing concentrations. Inhibition of the FLT3 activity by an inhibitor results in factor dependency, which in the absence of IL3 results in cell death in the three day growth assays.

Compound | pIC50 [1] | pIC50 [2] | GI50 (BA/F3-FLT3-ITD + D835Y) [µM]
COc1cc(-c2cc3cc(-c4ccc(CC(=O)Nc5ccnc(C(F)(F)F)c5)nc4)cnc3[nH]2)ccn1 [Compound P-0187, 2-[5-[2-(2-methoxy-4-pyridyl)-1H-pyrrolo[2,3-b]pyridin-5-yl]-2-pyridyl]-N-[2-(trifluoromethyl)-4-pyridyl]acetamide] | 5.00 to 10.00 | 5.00 to 10.00 | 0.0001 to 10
COc1cc(-c2cc3cc(-c4cc(F)c(CC(=O)Nc5cc(C(F)(F)F)ccn5)cc4F)cnc3[nH]2)ccn1 [Compound P-0189, 2-[2,5-difluoro-4-[2-(2-methoxy-4-pyridyl)-1H-pyrrolo[2,3-b]pyridin-5-yl]phenyl]-N-[4-(trifluoromethyl)-2-pyridyl]acetamide] | 5.00 to 10.00 | 5.00 to 10.00 | 0.0001 to 10
O=C(Cc1cc(F)c(-c2cnc3[nH]c(-c4ccnc(N5CCOCC5)c4)cc3c2)cc1F)Nc1cc(C(F)(F)F)ccn1 [Compound P-0190, 2-[2,5-difluoro-4-[2-(2-morpholino-4-pyridyl)-1H-pyrrolo[2,3-b]pyridin-5-yl]phenyl]-N-[4-(trifluoromethyl)-2-pyridyl]acetamide] | 5.00 to 10.00 | 5.00 to 10.00 | 0.0001 to 10
COc1ncc(NC(=O)Cc2ccc(-c3cnc4[nH]c(-c5ccc(N6CCOCC6)nc5)cc4c3)c(F)c2)cc1C(F)(F)F [Compound P-0193, 2-[3-fluoro-4-[2-(6-morpholino-3-pyridyl)-1H-pyrrolo[2,3-b]pyridin-5-yl]phenyl]-N-[6-methoxy-5-(trifluoromethyl)-3-pyridyl]acetamide] | 5.00 to 10.00 | 5.00 to 10.00 | 0.0001 to 10
CCc1cncc(NC(=O)Cc2ccc(-c3cnc(Nc4cnn(C(F)F)c4)nc3)cc2)c1 [Compound P-0223, 2-[4-[2-[[1-(difluoromethyl)pyrazol-4-yl]amino]pyrimidin-5-yl]phenyl]-N-(5-ethyl-3-pyridyl)acetamide] | 5.00 to 10.00 | 5.00 to 10.00 | 0.0001 to 10
O=C(Cc1ccc(-c2cnc(Nc3cnn(C(F)F)c3)nc2)cc1)Nc1cncc(C2CC2)c1 [Compound P-0224, N-(5-cyclopropyl-3-pyridyl)-2-[4-[2-[[1-(difluoromethyl)pyrazol-4-yl]amino]pyrimidin-5-yl]phenyl]acetamide] | 5.00 to 10.00 | 5.00 to 10.00 | 0.0001 to 10
Cc1ncc(NC(=O)Cc2ccc(-c3cnc(Nc4cn[nH]c4)nc3)c(F)c2)cc1C(F)(F)F [Compound P-0225, 2-[3-fluoro-4-[2-(1H-pyrazol-4-ylamino)pyrimidin-5-yl]phenyl]-N-[6-methyl-5-(trifluoromethyl)-3-pyridyl]acetamide] | 5.00 to 10.00 | 5.00 to 10.00 | 0.0001 to 10
COc1ncc(NC(=O)Cc2cc(F)c(-c3cnc(Nc4cn[nH]c4)nc3)cc2F)cc1C(F)(F)F [Compound P-0226, 2-[2,5-difluoro-4-[2-(1H-pyrazol-4-ylamino)pyrimidin-5-yl]phenyl]-N-[6-methoxy-5-(trifluoromethyl)-3-pyridyl]acetamide] | 5.00 to 10.00 | 5.00 to 10.00 | 0.0001 to 10
COCCn1cc(Nc2ncc(-c3ccc(CC(=O)Nc4cnc(C)c(C(F)(F)F)c4)c(F)c3)cn2)cn1 [Compound P-0264, 2-[2-fluoro-4-[2-[[1-(2-methoxyethyl)pyrazol-4-yl]amino]pyrimidin-5-yl]phenyl]-N-[6-methyl-5-(trifluoromethyl)-3-pyridyl]acetamide] | 5.00 to 10.00 | 5.00 to 10.00 | 0.0001 to 10
